# Experimental data: patent publication US20210283146A1, “COMPOSITION CONTAINING A 7BETA-HYDROXYCHOLESTEROL AND A LIPID VEHICLE, AND ITS USE IN THE TREATMENT OF NEOPLASTIC PATHOLOGIES” (priority 2018, published 2021)
# Legend:
# [1] = tested on: GBM; settings: cited from earlier work
# [2] = tested on: wild-type mice; settings: mouse, in vivo
# Description: (§1) The composition from Example 2 was administered orally (by tube) to wild-type mice at a rate of 1.5 mg (50 μl of BIM2 PO) per animal, twice a day, 5 days out of 7 with a maximum duration of treatment of 21 days.
# (§2) In the treated group, 2 mice were sacrificed after 18 days and 3 mice were sacrificed after 21 days. In the control group, 3 mice were sacrificed after 21 days.
# (§3) The samples of internal organs (stomach, alimentary canal, liver, kidney, lung, heart) were immersed in 4% formaldehyde for 72 h and stored at 4° C., and then embedded in paraffin. The samples underwent macroscopic analysis before and after thinning.
# (§4) Histological examination of the internal organs fixed with formaldehyde and toxicological quantifications were carried out on sections stained with haematoxylin-eosin-saffron according to a 4-level evaluation system complying with the nomenclature (3).
# (§5) All the sections were examined for possible signs of cellular alteration, degeneration, necrosis, inflammation, fibrosis etc.
# [3] = tested on: spontaneous gliomas; assay: Anti-GBM efficacy of BIM2b PO by the oral route in dogs with spontaneous gliomas; type: in vivo; settings: oral treatment; mean survival of a dog with GBM 2-3 months
# Description: 9 dogs with spontaneous gliomas diagnosed by imagery were included in the study.
# The condition and the tumour volume are evaluated by MRI.
# On day D0 (1st administration), the GBM dog subject is examined clinically and a blood sample is collected for analysis of the biochemical parameters. On D15, an electrocardiogram is recorded and a blood sample is taken.
# Electrocardiograms, blood samples and MRI are carried out on D42, D63, D84 and D105, then 3 months and 6 months after stopping the treatment.
# The tumour response is evaluated by MRI based on the RECIST criteria (Response Evaluation Criteria in Solid Tumours). These criteria define the tumoral response as follows: • progression is an increase in size of the largest axis of the tumour of more than 20% relative to the preceding MRI; • regression is defined by a decrease in the size of the largest axis of the tumour of more than 30% relative to the preceding MRI; • stability is defined by a change in the size of the tumour between a decrease of less than 30% and an increase of less than 20%.
# [4] = tested on: wild-type mice; assay: Investigation of toxicity of BIM2b PO in healthy mice
# Description: as §1, §2, §3, §4, §5
# [5] = tested on: beagle dogs; settings: dog, in vivo
# [6] = Analysis of BIM2b in the brains of mice treated per os with BIM2b PO (HPTLC); type: in vivo, mouse; settings: for Compound BIM2b (μg/g of brain): healthy mice, BIM2b PO per os
# Description: The mouse brains dried and stored invididually in cryotubes at […] in liquid nitrogen are left to return to ambient temperature. Each brain is weighed and put in the Potter; 4 ml of 0.74% of cold KCl is added and the rest of the procedure takes place on a bed of ice. Each brain is ground 6 times at 1000 rev/min, each cycle comprising 5 minutes of grinding and 5 minutes of rest. The oxysterols are extracted according to the Folch procedure described above (II.3.). The lipid residue is then subjected to adsorption chromatography on a silica column.
# The silica (8 g) is prepared in 40 ml of the hexane:ether mixture (diethyl-oxide (3:7, v/v) and then poured into the appropriate columns. The height of the silica bed is 18 cm and its volume is 15 ml.
# A suitable quantity of mouse brain extract is dissolved in 1 ml of the first eluent system and deposited on the silica bed. Elution takes place in 4 steps in order to concentrate the fractions containing the oxysterols and remove as far as possible the lipids contaminating the mouse brain, in particular cholesterol.
# The groups of fractions are evaporated to dryness, dissolved in acetone and the appropriate volumes are subjected to HPTLC chromatography.
# The treatment of the healthy mice per os with BIM2b PO and the provenance of the brains are described in Example 4.
# The compound BIM2b and its metabolites in the brains were separated, detected and quantified by HPTLC as described in the Methods section.
# [7] = tested on: beagle dogs; assay: Study of tolerance of BIM2b PO in healthy dogs
# [8] = in vivo
# Description: The GBM tumour was obtained by necropsy of a dog with glioblastoma, which was treated by the oral route with BIM2b PO and which lived with a good quality of life for 8 months. Necropsy was carried out 21 days after stopping the treatment with BIM2b PO. The tumour was fixed in formol mainly for histopathology analysis and a remaining fragment was analysed for quantification of BIM2b.
# The fragments of dog brains, stored individually in cryotubes at +4° C. in a bath of formol, are dried on sopalin paper before they are weighed and put in the Potter. Just as for extraction of the mouse brains, each fragment was extracted after adding 4 ml of cold 0.74% KCl. The procedures for homogenization and extraction are the same as was described for the mouse brains in the Methods section.
# Dry lipid extract of the dog GBM tumour fragment was thus obtained and was chromatographed sequentially on a SEP PAK Classic Silica cartridge; then on SEP PAK Plus C18 (with eluent A=5 mM of ammonium acetate/ultrapure water and B=5 mM of ammonium acetate/MetOH).
# The compound BIM2b and its metabolites in the tumour are separated, detected and quantified by HPTLC as described in Section II) Methods.
compound,measurement,setting,value
CN(C)C/C=C/C(=O)Nc1cc2c(Nc3ccc(F)c(Cl)c3)ncnc2cc1O[C@H]1CCOC1 [afatinib dimaleate],median survival for patients with GBM,[1],do not improve the median survival
"CC(=O)O[C@H]1C=C2CC(OC(=O)C3COC(C)(C)O3)CC[C@]2(C)C2CC[C@@]3(C)C(CCC3[C@H](C)CCCC(C)C)C21 (stereo in doubt) [BIM2b, 7-acetoxy-10,13-dimethyl-17-(6-methylheptan-2-yl)-2,3,4,7,8,9,10,11,12,13,14,15,16,17-tetradecahydro-1H-cyclopenta[a]phenanthren-3-yl 2,2-dimethyl-1,3-dioxolane-4-carboxylate]",hepatic or renal toxicity (biological parameters),[2],did not demonstrate hepatic or renal toxicity
same,survival of the GBM dog subject whose tumour was analysed,[3],8 months
same,toxicity (conclusion),[4]; oral,does not entrain any toxicity
same,undesirable clinical effects,"[4]; twice a day, 5 times a week",did not give rise to undesirable clinical effects
same,undesirable clinical effects,[5],did not cause undesirable clinical effects
same,Compound BIM2b (μg/g of brain),[6]; Day D2,12.5 μg/g of brain
same,Compound BIM2b (μg/g of brain),[6]; Day D4,7.1 μg/g of brain
same,Compound BIM2b (μg/g of brain),[6]; Day D18,11.7 μg/g of brain
same,Compound BIM2b (μg/g of brain),[6]; Day D22 (treatment stopped on D20),1.0 μg/g of brain
same,percentage of BIM2b found in the brains relative to the total quantity ingested,[6]; on D18,0.013%
same,drop in the content of BIM2b in the mouse brain,"[6]; on D22, after stopping of the treatment on D20",91.5%
same,crossing of the blood-brain barrier (BBB),"[6]; treated healthy mice, oral",crosses the blood-brain barrier (BBB)
same,hepatic or renal toxicity,[7],did not demonstrate hepatic or renal toxicity
same,toxicity (conclusion),[7]; administered as BIM2b PO,does not lead to any toxicity
same,crossing of the BTB,[8]; dog,crosses the BTB
same,percentage by weight of BIM2b found in the whole tumour relative to the total quantity ingested,[8]; dog,0.39%
same,ratio of percentage in dog tumour to percentage in brains of healthy mice,[8]; 21 days after stopping the treatment,30 times
bleomycin,median survival for patients with GBM,[1],do not improve the median survival
O=P1(N(CCCl)CCCl)NCCCO1 (stereo not drawn) [cyclophosphamide],median survival for patients with GBM,[1],do not improve the median survival
N.N.[Cl][Pt][Cl] [cisplatin],median survival for patients with GBM,[1],do not improve the median survival
